In patent US20240316155A1, “COMPOSITION FOR TREATING SHORT BOWEL SYNDROME” (ZEALAND PHARMA A/S, priority 2021, published 2024):
*1 amine or outer side, *2 acyl side, *3 side chain or, on linkers, in order; H or OH if unused. Side-chain parts run from the residue outwards. [ ]: non-standard residue; d: D form. The star is where a group is joined. C18 diacid = O=C(O)CCCCCCCCCCCCCCCCC(=O)*; γGlu = O=C(O)[C@H](CCC(=O)[*:2])N[*:1]; Aib = CC(C)(N)C(=O)O

What was measured:
SBS patients = settings: cited from earlier work
SBS mice = settings: cited from earlier work
[1] = test system: Short Bowel Syndrome (SBS) mice; assay: SBS mice (ICR): visual assessment of stool consistency with reference to Bristol Stool type; type: in vivo, C57BL/6J mice
Excerpt: (§1) Adult, male C57BL/6J mice with ˜30 g body weight of ˜4 months received a 12-cm ileum and cecum resection (ICR) with jejunocolonic anastomosis (see FIG. 1, middle). The mice were then randomly assigned to either Cpd 18 or vehicle treatment As control for the abdominal surgery, the sham group was included which had laparotomy, bowel exposure, transection and end-to-end anastomosis but no resection (see FIG. 1, bottom). To prevent intestinal obstruction, all mice were switched to liquid diet 2 days before surgery and maintained on this diet until the end of the experiment. Throughout the experiment, animals were singly housed. All mice were studied with the intention to survive to day 14.
Briefly, mice were anesthetized by i. p. injection of ketamine (100 mg/kg bw) and xylazine (15 mg/kg bw) and orally intubated and ventilated. After midline incision, the distal small bowel and the cecum were exposed and then transected 12 cm proximal to the ileocecal junction and immediately distal to the cecum. The resected bowel was removed, and the length of the specimen was measured. An end-to-end, jejunocolonic anastomosis was created and the abdomen was closed. In the sham group, laparotomy, bowel exposure, transection and end-to-end anastomosis but no resection was performed. […]

[2] = test system: Short Bowel Syndrome (SBS) mice; assay: SBS mice (ICR): stool water content; type: in vivo, C57BL/6J mice; settings: ICR-resected mice
Excerpt: as §1
(§2) Briefly, mice were anesthetized by i. p. injection of ketamine (100 mg/kg bw) and xylazine (15 mg/kg bw) and orally intubated and ventilated. After midline incision, the distal small bowel and the cecum were exposed and then transected 12 cm proximal to the ileocecal junction and immediately distal to the cecum. The resected bowel was removed, and the length of the specimen was measured. An end-to-end, jejunocolonic anastomosis was created and the abdomen was closed. In the sham group, laparotomy, bowel exposure, transection and end-to-end anastomosis but no resection was performed. Immediately after surgery, all mice were weighed and received 1 ml isotonic saline subcutaneously and carprofen 5 mg/kg body weight. All surgical procedures were performed by the same surgeon. Mice were kept in a heated terrarium (29° C.) for 4 h and then returned to individual cages with free access to liquid food and water. The liquid diet was provided in feeding tubes. Mice were allowed to recover for a day after surgery, and then injected once daily with 30 nmol/kg body weight of Cpd 18. 50 mM Histidine buffer pH 6, 200 mM Mannitol served as vehicle control.
Stools were collected on selected days throughout the experiment. Stool water content was assessed by collecting stools in a pre-weighed tube, weighing, and then drying overnight at 80° C. and reweighing the dried stools. […]

[3] = test system: Short Bowel Syndrome (SBS) mice; assay: Short bowel syndrome (SBS) mice, ileum and cecum resection (ICR): postoperative survival, body weight, dietary intake; type: in vivo, C57BL/6J mice; settings: ICR-resected mice
Excerpt: as §1
as §2, with “50 mM Histidine buffer pH 6, 200 mM Mannitol served as vehicle control.” left out
Mice were scored for wellbeing daily as described (Berlin et al. 2019). If the wellness score dropped to below 4 pts, or when weight loss exceeded 20%, the mouse was immediately killed and not analyzed further. […]
Body weight (FIG. 6) and food consumption (FIG. 7) was measured daily. […]

| Molecule | effect on diarrhea (SBS patients) | effect on treatment of diarrhea (SBS mice) | stool consistency, Bristol Stool type ([1]; day 5 after resection, vehicle Type 6 or 7, sham Type 3 or 4) | stool consistency, Bristol Stool type ([1]; day 14, vehicle Type 6 or 7) | stool water content ([2]; 30 nmol/kg once daily, day 14, vehicle approximately 75%, sham 50%) | stool water content compared to vehicle ([2]; 30 nmol/kg once daily, from day 7) | stool water content ([2]; after 2 days) | survival rate after 14 days ([3]; 30 nmol/kg once daily from day 1 after surgery, vehicle 60%, sham 90%) | postoperative relative body weight (relative to initial weight) ([3]; 30 nmol/kg once daily, compared to vehicle, up to day 14) | postoperative dietary intake ([3]; 30 nmol/kg once daily, from day 2 onwards, compared to vehicle) |
| --- | --- | --- | --- | --- | --- | --- | --- | --- | --- | --- |
| CC[C@H](C)[C@H](NC(=O)[C@H](Cc1ccccc1)NC(=O)[C@H](CC(=O)O)NC(=O)[C@H](CCCNC(=N)N)NC(=O)[C@H](C)NC(=O)[C@H](C)NC(=O)[C@H](CC(C)C)NC(=O)[C@H](CC(N)=O)NC(=O)[C@H](CC(=O)O)NC(=O)[C@H](CC(C)C)NC(=O)[C@@H](NC(=O)[C@@H](NC(=O)[C@H](CC(N)=O)NC(=O)[C@H](CCSC)NC(=O)[C@H](CCC(=O)O)NC(=O)[C@H](CC(=O)O)NC(=O)[C@H](CO)NC(=O)[C@H](Cc1ccccc1)NC(=O)[C@H](CO)NC(=O)CNC(=O)[C@H](CC(=O)O)NC(=O)CNC(=O)[C@@H](N)Cc1c[nH]cn1)[C@@H](C)O)[C@@H](C)CC)C(=O)N[C@@H](CC(N)=O)C(=O)N[C@@H](Cc1c[nH]c2ccccc12)C(=O)N[C@@H](CC(C)C)C(=O)N[C@H](C(=O)N[C@@H](CCC(N)=O)C(=O)N[C@H](C(=O)N[C@@H](CCCCN)C(=O)N[C@H](C(=O)N[C@H](C(=O)N[C@@H](CC(=O)O)C(=O)O)[C@@H](C)O)[C@@H](C)CC)[C@@H](C)O)[C@@H](C)CC [Teduglutide, [Gly2]-hGLP-2 (1-33)] | some effect | intermittent effect |  |  |  |  |  |  |  |  |
| H-H[Aib]EGSFTSELATILDK([γGlu-C18 diacid])QAARDFIAWLIQHKITD-OH [Cpd 18] |  |  | Type 4 or 5 | type 4 | approximately 50% | significantly reduced compared to vehicle | approximately 75% | 74% | differed from the vehicle group after six days onwards by starting to increase towards the initial weight | lower |
